These results are taken from patent US8981149B2, “Compounds modulating the hedgehog protein signaling pathway, marked forms thereof, and applications” (Centre National De La Recherche Scientifique, priority 2011, dated 2015).

Broadly, the Kd is the constant that tells how readily two partners part at equilibrium. Broadly, the Ki is a dissociation constant, usually derived from enzyme kinetics or from competition with a known ligand.

Like-named read-outs stand apart in the source and are kept apart here.

Test [1] addresses T1, human Smoothened receptor (Homo sapiens, UniProt Q99835).
T1 construct: expressed in transfected cells
The test is described as follows: Saturation of binding of 3H-(7d) to membranes of HEK-hSmo cells. As to conditions: read-out: Kd of specific binding. Here is the method: (§1) The binding test is carried out on membranes enriched with Smoothened receptor. Cells of the HEK-hSmo line were used for preparing these membranes. The cells are washed and recovered in iced PBS. After centrifugation at 100 g for 7 minutes at 4° C., the pellet is taken up in 10 times its volume of an iced buffer A (50 mM HEPES, pH 7.4, 1 mM EDTA) with addition of 10 μl of a cocktail of protease inhibitors (PEAK, Sigma) per ml of buffer, then it is homogenized using a Polytron grinding mill. After centrifugation at 500 g for 30 minutes at 4° C., which makes it possible to remove the nuclei from the cells, the supernatant is centrifuged again at 48 000 g for 45 min at 4° C. The pellet is taken up in 2 ml of buffer A with PEAK added, then the suspension is homogenized using a glass conical grinding mill and is passed through a 23 G needle. Finally, aliquots are placed in Eppendorf tubes and stored at −80° C. The concentration of total protein in the preparation is determined by Lowry's method using BSA for preparing the standard range. This concentration is 10.9 mg/ml.
The membranes are resuspended in a buffer (50 mM HEPES and 3 mM MgCl2) containing 0.2% of BSA. The tests of binding of ^3H-(7d) are carried out in polypropylene tubes. […] The radioactivity retained on the filter is measured in the presence of 3 ml of scintillating agent in a liquid scintillation counter. […]

The next test deals with C3H10T1/2 cells. The test is described as follows: Differentiation of C3H10T1/2 cells induced by SAG, alkaline phosphatase (AP) activity. To be noted: Mus musculus, C3H 10T1/2. Format: cell-based, mouse. Here is the method:
The test compounds of formula (I) were dissolved in dimethylsulfoxide up to a concentration of 10 mM, then stored at a temperature of −20° C. until used.
The line of C3H10T1/2 pluripotent fibroblast cells (ATCC) was cultured in the conditions recommended by the ATCC. These cells were activated using 0.1 μM of SAG according to the methods described by Chen et al., Proc. Natl. Acad. Sci. USA, 2002, 99, 14071 and Frank-Kamenetsky et al., J. Biol., 2002, 1, 10.
Activation by SAG causes differentiation of the cell line and allows it to express alkaline phosphatase (AP). It was thus possible to measure the activity of the Hedgehog protein signalling pathway via measurement of the alkaline phosphatase (AP) activity.
The C3H10T1/2 cells were seeded on 96-well plates at a density of 5.10^3 cells per well, 24 hours before adding the test compounds at a concentration varying from 1 nM to 30 μM and in the presence of 0.1 μM of SAG, using DMEM (Dulbecco's Modified Eagle's Medium) with 10% fetal calf serum as culture medium. The tests were carried out in quadruplicate. The plates were then incubated for 5 to 6 days at a temperature of 37° C. under 5% CO2 atmosphere. The cells were then washed in cold phosphate buffer (“Phosphate Buffer Serum”: PBS), then lysed by sonication at 4° C. in 50 μL of a solution containing 0.9% of NaCl and 0.2% of Triton X-100.
Measurement of the alkaline phosphatase (AP) activity in the lysates thus obtained was then performed according to the method described by Pepinsky et al. (J. Biol. Chem., 1998, 273, 14037). After adding 100 μL of reaction buffer (200 mM Tris-HCl; pH 10.5; 0.4 M of 2-amino-2-methylpropanol and 8 mM of MgCl2) and 50 μL of substrate (4 mM of p-nitrophenyl disodium phosphate), the lysates were incubated at 37° C. for 30-60 min, then the optical density was read at a wavelength of 415 nm.

The target of test [2] is T1, human Smoothened receptor. The test is described as follows: Inhibition of binding of 3H-(7d) to membranes of HEK-hSmo cells. To be noted: HEK-hSmo membranes. Here is the method:
as §1, with “range.” for “range. This concentration is 10.9 mg/ml.”
The membranes are resuspended in a buffer (50 mM HEPES and 3 mM MgCl2) containing 0.2% of BSA. The tests of binding of ^3H-(7d) are carried out in polypropylene tubes. The membranes (2 μg of proteins) are incubated with the ^3H-(7d) in the presence or absence of the cold test compounds for 3 hours at 37° C. in a final volume of 400 μl. Incubation is stopped by immersing the tubes in iced water followed by rapid filtration (Brandel) through a glass fiber filtration membrane (GF/C) treated beforehand with 0.3% of polyethylenimine, which can reduce the nonspecific binding of the ^3H-(7d) to the filtration membrane. The radioactivity retained on the filter is measured in the presence of 3 ml of scintillating agent in a liquid scintillation counter.
In this experiment, the cold ligand competes with the radioactive ligand for binding to the receptor, and the affinity (Ki) of each cold ligand for the receptor can be analyzed based on the IC50 values deduced from the inhibition curves.

The target of another test is T2, human Smo receptor (Homo sapiens, UniProt Q99835).
T2 construct: expressed in transfected cells
T2 sequence (Q99835 28-787): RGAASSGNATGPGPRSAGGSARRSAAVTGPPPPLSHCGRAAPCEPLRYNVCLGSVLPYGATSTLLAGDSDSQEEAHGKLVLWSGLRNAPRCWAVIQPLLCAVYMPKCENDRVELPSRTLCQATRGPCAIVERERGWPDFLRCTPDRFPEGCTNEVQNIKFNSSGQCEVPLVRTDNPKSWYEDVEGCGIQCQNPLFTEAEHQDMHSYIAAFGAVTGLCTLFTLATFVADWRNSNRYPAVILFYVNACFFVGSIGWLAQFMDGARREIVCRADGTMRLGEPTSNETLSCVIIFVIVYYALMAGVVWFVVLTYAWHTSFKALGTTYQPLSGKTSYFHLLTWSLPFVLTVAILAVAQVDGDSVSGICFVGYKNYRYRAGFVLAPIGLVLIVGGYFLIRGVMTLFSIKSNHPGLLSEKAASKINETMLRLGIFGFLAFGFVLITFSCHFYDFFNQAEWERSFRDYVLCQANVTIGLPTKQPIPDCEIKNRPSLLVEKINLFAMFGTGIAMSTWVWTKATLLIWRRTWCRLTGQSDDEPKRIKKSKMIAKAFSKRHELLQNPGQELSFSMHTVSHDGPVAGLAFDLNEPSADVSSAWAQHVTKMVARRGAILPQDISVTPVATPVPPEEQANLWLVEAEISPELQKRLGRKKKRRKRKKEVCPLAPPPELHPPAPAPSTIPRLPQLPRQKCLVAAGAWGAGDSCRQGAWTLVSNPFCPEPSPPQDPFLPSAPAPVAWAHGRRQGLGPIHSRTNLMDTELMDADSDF
The test is described as follows: Competition with bodipy-cyclopamine (BC) binding in HEK-hSmo cells. Here is the method:
Cells of the HEK293 line stably transfected with the human Smo receptor are used. The experiment was conducted according to the protocol described in Roudaut et al., Mol. Pharmacol. 79: 453-460, 2011.
At the end of the incubation, the cells are fixed and stained with DAPI, a fluorescent molecule with high affinity for DNA which makes it possible to visualize the nuclei in blue in fluorescence microscopy.

T1 sequence (Q99835 28-787): as above

Take `COc1cc(C(=O)NC(=N)Nc2ccc(C)c(NC(=O)c3ccc(CCc4ccccc4)cc3)c2)cc(OC)c1OC.Cl` [Compound 7d, 3,4,5-trimethoxy-N—(N-(4-methyl-3-(4-phenethylbenzamido)phenyl)carbamimidoyl)benzamide hydrochloride]: the Kd in test [1] worked out at 0.3 nM. The IC50 in the test on C3H10T1/2 cells (AP activity, differentiation induced by SAG (0.1 μM), read-out: IC50 ± SEM, C3H10T1/2 cells (2)) came out at 6 ± 1 nM; in the test with C3H10T1/2 cells (SAG 0.1 μM, Mean ± SEM, n ≧ 3, read-out: IC50, differentiation of C3H10T1/2 cells), 6 ± 1 nM; with C3H10T1/2 cells (after induction by SAG at 0.1 μM, read-out: IC50, inhibition of alkaline phosphatase (AP) activity, differentiation of C3H10T1/2 cells) it was 6 ± 1 nM; in test [2] (0.35 nM 3H-(7d), 3 hours at 37° C., read-out: IC50 ± SEM, binding of compound 3H-(7d)), 1.5 nM; at human Smo receptor (bodipy-cyclopamine (5 nM), HEK-hSmo cells, read-out: IC50 ± SEM, BC binding (4)), 8 ± 1 nM. Also, the Ki in test [2] (calculated from IC50, read-out: Ki ± SEM, binding of compound 3H-(7d)) was 0.7 ± 0.1 nM. In addition, the “Block of the binding of BC to HEK-hSmo cells, in words” value on human Smo receptor (BC 5 nM, 2 hours) was “very similar and high”.
